In PMC11167047 (Cell Death Discovery, 2024):

How the values were obtained:
Assay in all cases: kinome screen (33PanQinase)
Format in all cases: biochemical
[1] = molecular target: T1, MAP3K9 (Homo sapiens, UniProt P80192)
T1 construct: purchased Reaction Biology Europe GmbH (formerly ProQinase)
Procedure: (§1) The Kinome Screening was performed by Reaction Biology Europe GmbH (http://reactionbiology.com; Freiburg i. Br., Germany).

[2] = molecular target: T2, SIK1 (Homo sapiens, UniProt P57059)
T2 construct: purchased Reaction Biology Europe GmbH (formerly ProQinase)
T2 sequence (P57059 whole entry): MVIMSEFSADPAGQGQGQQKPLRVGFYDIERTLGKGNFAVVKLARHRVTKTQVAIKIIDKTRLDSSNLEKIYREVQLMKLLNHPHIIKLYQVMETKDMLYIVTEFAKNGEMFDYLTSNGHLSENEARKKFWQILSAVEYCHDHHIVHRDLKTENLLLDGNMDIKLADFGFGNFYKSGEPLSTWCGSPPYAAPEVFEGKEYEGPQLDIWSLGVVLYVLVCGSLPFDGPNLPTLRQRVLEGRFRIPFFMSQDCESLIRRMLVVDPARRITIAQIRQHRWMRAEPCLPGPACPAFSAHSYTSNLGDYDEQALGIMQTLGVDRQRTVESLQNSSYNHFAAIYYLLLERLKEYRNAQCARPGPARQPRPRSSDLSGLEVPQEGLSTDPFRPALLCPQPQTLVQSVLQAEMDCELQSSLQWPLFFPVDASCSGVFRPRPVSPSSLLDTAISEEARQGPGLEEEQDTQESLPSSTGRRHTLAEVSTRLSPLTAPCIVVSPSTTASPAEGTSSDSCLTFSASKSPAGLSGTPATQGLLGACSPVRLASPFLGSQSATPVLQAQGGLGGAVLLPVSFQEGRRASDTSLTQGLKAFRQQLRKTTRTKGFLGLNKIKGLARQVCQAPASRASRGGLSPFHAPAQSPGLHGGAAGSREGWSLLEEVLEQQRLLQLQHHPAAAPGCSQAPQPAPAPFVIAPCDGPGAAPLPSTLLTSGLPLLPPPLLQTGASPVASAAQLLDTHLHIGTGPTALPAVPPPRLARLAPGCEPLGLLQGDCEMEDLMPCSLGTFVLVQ
Procedure: as §1

[3] = molecular target: T3, CK1γ3 (Homo sapiens, UniProt Q9Y6M4)
T3 construct: purchased Reaction Biology Europe GmbH (formerly ProQinase)
T3 sequence (Q9Y6M4 whole entry): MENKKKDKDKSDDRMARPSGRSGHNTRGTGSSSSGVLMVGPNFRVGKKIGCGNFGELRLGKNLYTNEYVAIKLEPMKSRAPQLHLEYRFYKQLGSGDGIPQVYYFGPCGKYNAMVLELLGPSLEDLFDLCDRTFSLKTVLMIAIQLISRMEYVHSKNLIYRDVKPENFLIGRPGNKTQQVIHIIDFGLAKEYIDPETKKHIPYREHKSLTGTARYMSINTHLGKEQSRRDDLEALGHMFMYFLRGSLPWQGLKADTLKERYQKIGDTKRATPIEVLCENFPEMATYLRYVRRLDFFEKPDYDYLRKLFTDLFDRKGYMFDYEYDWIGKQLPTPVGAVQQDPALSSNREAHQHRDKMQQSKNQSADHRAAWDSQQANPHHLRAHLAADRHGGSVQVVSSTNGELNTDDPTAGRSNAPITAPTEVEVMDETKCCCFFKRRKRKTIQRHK
Procedure: as §1

[4] = molecular target: T4, TSF1 (Homo sapiens, UniProt O75716)
T4 construct: purchased Reaction Biology Europe GmbH (formerly ProQinase)
T4 sequence (O75716 whole entry): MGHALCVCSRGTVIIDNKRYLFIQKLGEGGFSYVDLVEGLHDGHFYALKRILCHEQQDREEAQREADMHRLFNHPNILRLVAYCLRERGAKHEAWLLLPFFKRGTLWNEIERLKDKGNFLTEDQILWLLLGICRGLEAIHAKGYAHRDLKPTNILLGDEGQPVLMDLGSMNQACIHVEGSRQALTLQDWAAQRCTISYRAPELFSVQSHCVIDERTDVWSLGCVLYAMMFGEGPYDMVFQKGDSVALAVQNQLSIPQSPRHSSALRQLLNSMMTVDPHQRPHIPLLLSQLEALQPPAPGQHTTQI
Procedure: as §1

[5] = molecular target: T5, BMX (Homo sapiens, UniProt P51813)
T5 construct: purchased Reaction Biology Europe GmbH (formerly ProQinase)
T5 sequence (P51813 1-675): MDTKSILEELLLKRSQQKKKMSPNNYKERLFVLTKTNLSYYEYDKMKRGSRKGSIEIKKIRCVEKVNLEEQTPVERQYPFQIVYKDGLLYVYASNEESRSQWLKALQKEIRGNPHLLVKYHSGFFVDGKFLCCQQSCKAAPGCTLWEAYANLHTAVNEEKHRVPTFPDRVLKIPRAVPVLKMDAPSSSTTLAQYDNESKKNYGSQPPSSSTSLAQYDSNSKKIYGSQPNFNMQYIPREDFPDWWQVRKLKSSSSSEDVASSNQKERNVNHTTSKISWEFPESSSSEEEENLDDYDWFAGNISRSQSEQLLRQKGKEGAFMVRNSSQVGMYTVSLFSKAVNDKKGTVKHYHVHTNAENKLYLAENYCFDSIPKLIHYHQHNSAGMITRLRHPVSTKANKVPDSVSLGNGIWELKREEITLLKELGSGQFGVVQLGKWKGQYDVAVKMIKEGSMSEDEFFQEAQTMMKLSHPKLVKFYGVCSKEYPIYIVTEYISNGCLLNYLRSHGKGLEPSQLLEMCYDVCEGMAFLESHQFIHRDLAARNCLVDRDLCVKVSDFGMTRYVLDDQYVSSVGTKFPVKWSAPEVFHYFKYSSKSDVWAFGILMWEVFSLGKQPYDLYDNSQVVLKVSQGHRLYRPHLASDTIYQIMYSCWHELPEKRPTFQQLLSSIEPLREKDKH
Procedure: as §1

[6] = molecular target: T6, MARK4 (Homo sapiens, UniProt Q96L34)
T6 construct: purchased Reaction Biology Europe GmbH (formerly ProQinase)
T6 sequence (Q96L34 1-752): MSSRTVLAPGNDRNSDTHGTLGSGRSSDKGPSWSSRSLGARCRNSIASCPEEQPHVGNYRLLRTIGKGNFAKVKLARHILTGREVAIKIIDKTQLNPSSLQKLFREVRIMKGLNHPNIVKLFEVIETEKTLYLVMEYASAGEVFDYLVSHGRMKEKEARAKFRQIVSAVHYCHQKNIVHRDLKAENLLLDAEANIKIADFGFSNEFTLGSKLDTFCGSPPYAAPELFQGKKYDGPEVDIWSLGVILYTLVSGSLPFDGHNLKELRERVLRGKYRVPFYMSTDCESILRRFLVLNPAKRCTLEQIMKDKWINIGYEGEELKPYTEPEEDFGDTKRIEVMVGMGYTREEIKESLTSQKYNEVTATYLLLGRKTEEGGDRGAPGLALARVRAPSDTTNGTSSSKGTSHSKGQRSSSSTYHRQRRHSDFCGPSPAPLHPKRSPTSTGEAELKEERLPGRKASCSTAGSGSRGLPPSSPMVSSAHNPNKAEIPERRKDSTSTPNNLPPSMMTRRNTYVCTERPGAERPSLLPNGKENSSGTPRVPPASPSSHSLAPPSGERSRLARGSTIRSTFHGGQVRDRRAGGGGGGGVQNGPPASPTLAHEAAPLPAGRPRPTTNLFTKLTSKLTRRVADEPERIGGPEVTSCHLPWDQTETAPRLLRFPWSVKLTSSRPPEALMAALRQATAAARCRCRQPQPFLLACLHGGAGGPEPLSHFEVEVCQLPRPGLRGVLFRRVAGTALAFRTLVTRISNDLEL
Procedure: as §1

[7] = molecular target: T7, CDK6/CycD2 (Homo sapiens, UniProt Q00534)
T7 construct: purchased Reaction Biology Europe GmbH (formerly ProQinase)
T7 sequence (Q00534 whole entry): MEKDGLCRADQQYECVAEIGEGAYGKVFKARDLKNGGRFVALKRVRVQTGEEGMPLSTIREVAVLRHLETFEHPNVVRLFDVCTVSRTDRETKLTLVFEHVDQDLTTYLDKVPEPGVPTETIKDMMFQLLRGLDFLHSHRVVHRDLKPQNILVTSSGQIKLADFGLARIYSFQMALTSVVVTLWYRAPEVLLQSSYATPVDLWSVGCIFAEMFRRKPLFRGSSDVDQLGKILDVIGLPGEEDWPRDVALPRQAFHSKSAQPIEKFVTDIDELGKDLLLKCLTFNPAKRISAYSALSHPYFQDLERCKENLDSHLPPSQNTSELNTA
T7 sequence (P30279 whole entry partner): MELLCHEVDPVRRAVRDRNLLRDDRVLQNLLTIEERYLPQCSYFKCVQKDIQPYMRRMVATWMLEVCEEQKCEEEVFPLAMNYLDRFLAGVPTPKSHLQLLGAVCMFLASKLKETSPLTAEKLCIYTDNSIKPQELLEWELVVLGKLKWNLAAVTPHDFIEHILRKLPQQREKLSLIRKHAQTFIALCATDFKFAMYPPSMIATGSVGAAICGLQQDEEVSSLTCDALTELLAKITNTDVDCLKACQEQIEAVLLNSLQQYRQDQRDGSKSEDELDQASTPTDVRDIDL
Procedure: as §1

[8] = molecular target: T8, CDK6/CycD1 (Homo sapiens, UniProt Q00534)
T8 construct: purchased Reaction Biology Europe GmbH (formerly ProQinase)
T8 sequence (Q00534 whole entry): as the sequence (Q00534 whole entry) above
T8 sequence (P24385 whole entry partner): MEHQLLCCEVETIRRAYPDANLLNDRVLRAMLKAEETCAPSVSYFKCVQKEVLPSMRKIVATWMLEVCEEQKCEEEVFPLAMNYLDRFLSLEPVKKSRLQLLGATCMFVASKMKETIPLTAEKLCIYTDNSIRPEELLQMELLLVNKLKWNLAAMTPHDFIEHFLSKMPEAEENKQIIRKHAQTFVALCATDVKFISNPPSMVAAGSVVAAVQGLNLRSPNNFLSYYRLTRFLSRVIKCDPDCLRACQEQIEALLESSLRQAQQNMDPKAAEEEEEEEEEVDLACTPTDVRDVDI
Procedure: as §1

[9] = molecular target: T9, SIK2 (Homo sapiens, UniProt Q9H0K1)
T9 construct: purchased Reaction Biology Europe GmbH (formerly ProQinase)
T9 sequence (Q9H0K1 whole entry): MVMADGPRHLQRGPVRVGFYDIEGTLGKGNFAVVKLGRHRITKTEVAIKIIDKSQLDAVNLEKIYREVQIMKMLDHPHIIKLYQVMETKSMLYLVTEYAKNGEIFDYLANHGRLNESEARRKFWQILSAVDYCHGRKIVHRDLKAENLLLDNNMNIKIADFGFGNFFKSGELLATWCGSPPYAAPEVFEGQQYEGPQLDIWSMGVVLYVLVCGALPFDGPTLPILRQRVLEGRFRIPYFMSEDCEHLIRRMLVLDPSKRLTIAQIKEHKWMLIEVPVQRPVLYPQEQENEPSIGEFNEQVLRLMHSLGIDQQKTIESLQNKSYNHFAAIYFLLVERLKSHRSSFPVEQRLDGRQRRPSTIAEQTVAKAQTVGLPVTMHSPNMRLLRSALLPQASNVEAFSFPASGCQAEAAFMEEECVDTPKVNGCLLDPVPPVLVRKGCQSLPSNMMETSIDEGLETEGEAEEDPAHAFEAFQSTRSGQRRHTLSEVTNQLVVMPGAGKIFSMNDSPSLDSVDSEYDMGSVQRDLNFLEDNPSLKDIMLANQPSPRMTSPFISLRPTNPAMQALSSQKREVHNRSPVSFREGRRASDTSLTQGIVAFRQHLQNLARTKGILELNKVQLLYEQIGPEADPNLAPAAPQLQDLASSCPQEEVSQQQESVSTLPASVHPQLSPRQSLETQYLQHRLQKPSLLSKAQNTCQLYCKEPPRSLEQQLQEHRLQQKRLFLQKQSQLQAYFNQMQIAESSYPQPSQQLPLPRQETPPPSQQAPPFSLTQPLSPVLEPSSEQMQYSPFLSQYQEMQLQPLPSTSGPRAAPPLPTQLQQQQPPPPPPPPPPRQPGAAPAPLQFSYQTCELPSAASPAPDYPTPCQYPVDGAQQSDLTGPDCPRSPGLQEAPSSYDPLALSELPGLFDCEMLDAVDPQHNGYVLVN
Procedure: as §1

[10] = molecular target: T10, HIPK1 (Homo sapiens, UniProt Q86Z02)
T10 construct: purchased Reaction Biology Europe GmbH (formerly ProQinase)
T10 sequence (Q86Z02 whole entry): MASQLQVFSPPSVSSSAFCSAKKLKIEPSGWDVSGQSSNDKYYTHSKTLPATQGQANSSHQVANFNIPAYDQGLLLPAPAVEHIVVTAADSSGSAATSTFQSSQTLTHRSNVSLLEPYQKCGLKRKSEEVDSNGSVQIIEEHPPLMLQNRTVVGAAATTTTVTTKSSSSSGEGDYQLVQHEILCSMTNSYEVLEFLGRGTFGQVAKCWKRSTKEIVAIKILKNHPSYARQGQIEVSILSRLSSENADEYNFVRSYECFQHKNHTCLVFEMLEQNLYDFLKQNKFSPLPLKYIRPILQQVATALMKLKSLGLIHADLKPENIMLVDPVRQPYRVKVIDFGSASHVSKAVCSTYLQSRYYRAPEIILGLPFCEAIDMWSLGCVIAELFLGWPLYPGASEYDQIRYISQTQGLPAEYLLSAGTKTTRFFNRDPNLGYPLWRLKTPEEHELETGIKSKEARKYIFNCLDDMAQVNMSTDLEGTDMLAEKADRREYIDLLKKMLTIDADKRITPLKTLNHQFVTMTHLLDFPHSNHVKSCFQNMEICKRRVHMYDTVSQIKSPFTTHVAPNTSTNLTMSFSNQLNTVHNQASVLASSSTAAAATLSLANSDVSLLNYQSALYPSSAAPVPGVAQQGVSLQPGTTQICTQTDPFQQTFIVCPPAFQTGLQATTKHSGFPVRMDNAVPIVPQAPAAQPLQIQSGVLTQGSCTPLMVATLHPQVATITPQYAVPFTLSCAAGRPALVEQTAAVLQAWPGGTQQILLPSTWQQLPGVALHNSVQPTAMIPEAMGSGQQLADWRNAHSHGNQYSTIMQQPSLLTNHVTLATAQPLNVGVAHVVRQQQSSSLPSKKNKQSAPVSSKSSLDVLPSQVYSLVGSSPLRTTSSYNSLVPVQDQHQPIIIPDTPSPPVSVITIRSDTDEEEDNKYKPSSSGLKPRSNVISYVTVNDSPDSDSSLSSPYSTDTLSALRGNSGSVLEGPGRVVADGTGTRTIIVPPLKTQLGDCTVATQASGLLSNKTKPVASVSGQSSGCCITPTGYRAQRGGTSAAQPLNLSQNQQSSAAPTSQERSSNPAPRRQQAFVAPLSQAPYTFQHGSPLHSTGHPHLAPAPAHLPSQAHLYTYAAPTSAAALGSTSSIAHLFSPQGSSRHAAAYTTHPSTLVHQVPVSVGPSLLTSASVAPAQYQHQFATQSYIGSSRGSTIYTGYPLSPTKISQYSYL
Procedure: as §1

[11] = molecular target: T11, DCAMKL2 (Homo sapiens, UniProt Q8N568)
T11 construct: purchased Reaction Biology Europe GmbH (formerly ProQinase)
T11 sequence (Q8N568 1-766): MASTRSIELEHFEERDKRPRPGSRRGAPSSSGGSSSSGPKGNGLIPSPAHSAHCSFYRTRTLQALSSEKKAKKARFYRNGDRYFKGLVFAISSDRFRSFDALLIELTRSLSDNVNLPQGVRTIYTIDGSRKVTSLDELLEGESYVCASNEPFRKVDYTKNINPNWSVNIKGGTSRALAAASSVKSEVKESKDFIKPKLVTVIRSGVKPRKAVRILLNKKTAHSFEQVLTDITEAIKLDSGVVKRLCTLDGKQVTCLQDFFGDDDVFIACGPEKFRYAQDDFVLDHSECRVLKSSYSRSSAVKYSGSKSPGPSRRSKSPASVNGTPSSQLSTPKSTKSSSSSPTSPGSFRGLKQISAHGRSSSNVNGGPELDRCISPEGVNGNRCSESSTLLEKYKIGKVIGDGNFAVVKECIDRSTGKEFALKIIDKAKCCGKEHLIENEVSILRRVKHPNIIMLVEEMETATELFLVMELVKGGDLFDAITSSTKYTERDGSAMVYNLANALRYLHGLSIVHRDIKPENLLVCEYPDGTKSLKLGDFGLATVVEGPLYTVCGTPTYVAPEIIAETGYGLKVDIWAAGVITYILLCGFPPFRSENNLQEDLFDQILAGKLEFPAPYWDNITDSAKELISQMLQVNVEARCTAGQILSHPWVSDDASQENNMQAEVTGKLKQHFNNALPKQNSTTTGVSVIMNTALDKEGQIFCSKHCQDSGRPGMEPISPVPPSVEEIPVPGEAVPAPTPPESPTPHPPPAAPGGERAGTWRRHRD
Procedure: as §1

SMILES | residual kinase activity ([1]; 0.3 µM) | residual kinase activity ([2]; 0.3 µM) | residual kinase activity ([3]; 0.3 µM) | residual kinase activity ([4]; 0.3 µM) | residual kinase activity ([5]; 0.3 µM) | residual kinase activity ([6]; 0.3 µM) | residual kinase activity ([7]; 0.3 µM) | residual kinase activity ([8]; 0.3 µM) | residual kinase activity ([9]; 0.3 µM) | residual kinase activity ([10]; 0.3 µM) | residual kinase activity ([11]; 0.3 µM) | further results
COc1ccnc2[nH]cc(-c3cc(N)nc(N)c3)c12 [meriolin 16] | 80 % of control | 98 % of control | 22 % of control | 104 % of control | 103 % of control | 91 % of control | 76 % of control | 51 % of control | 102 % of control | 10 % of control | 85 % of control | residual kinase activity ([1]; 0.03 µM): 95 % of control; residual kinase activity ([2]; 0.03 µM): 102 % of control; residual kinase activity ([3]; 0.03 µM): 77 % of control; residual kinase activity ([4]; 0.03 µM): 109 % of control; residual kinase activity ([5]; 0.03 µM): 118 % of control; residual kinase activity ([6]; 0.03 µM): 99 % of control; residual kinase activity ([7]; 0.03 µM): 93 % of control; residual kinase activity ([8]; 0.03 µM): 93 % of control; residual kinase activity ([9]; 0.03 µM): 96 % of control; residual kinase activity ([10]; 0.03 µM): 49 % of control; residual kinase activity ([11]; 0.03 µM): 92 % of control
c1ccc(CNc2cc(-c3c[nH]c4ncccc34)ccn2)cc1 [meriolin 36] | 57 % of control | 87 % of control | 49 % of control | 57 % of control | 109 % of control | 90 % of control | 47 % of control | 2 % of control | 86 % of control | 47 % of control | 91 % of control | residual kinase activity ([1]; 3 µM): 12 % of control; residual kinase activity ([2]; 3 µM): 48 % of control; residual kinase activity ([3]; 3 µM): 9 % of control; residual kinase activity ([4]; 3 µM): 8 % of control; residual kinase activity ([5]; 3 µM): 49 % of control; residual kinase activity ([6]; 3 µM): 54 % of control; residual kinase activity ([7]; 3 µM): 10 % of control; residual kinase activity ([8]; 3 µM): 1 % of control; residual kinase activity ([9]; 3 µM): 27 % of control; residual kinase activity ([10]; 3 µM): 10 % of control; residual kinase activity ([11]; 3 µM): 81 % of control
